Columns and labels:
[1] = tested on: ischemic heart models of rats; experiment: Heart protective (anti-ischemic) activity in ischemic heart models of anesthetized rats; format: in vivo; settings: 45 min occlusion, 90 min reperfusion
Description: Male rats (350-450 g, obtained from the Experimental Animal Team of the Korea Research Institute of Chemical Technology) were anesthetized by the intraperitoneal injection of pentobarbital at a dose of 75 mg/kg. After trachetomy, the rats were rendered to respire artificially at a rate of 60/min with a stroke volume of 10 ml/kg. Cannulars were inserted into the fermoral vein and the fermoral artery and used for drug administration and blood pressure measurement, respectively.
In the ischemic myocardium damage models, the body temperature has an important influence on the results. To avoid the change in the body temperature, a body temperature measuring probe was inserted into the rectum of each rat and the body temperature was constantly kept at 37 °C with the aid of a homeothermic blanket control unit.
Afterwards, during testing, a continuous measurement was made of the mean arterial blood pressures and heart rates from the rats. For the measurement of the blood pressure, a pressure transducer, such as that manufactured by Grass Ins., MA, U.S.A., identified as Model Statham P23XL, was used. The heart rate was measured by a tachometer, such as that manufactured by Gould Inc., OH, U.S.A., identified as Biotachometer. In addition, all of the changes occurring were continuously recorded through the Gould 2000 chart recorder, manufactured by Gould Inc.
The left coronary artery was occluded according to the Selye H. method as follows. The rats underwent a left thoracotomy operation for partial opening of the chest and the right-side chest was pressurized by the middle finger of the left hand to push the heart out. Immediately after the left anterior descending coronary artery hereinafter referred to as (LAD) was carefully stitched using a suture needle with 5-0 silk ligature, the heart was then repositioned in the thoracic cavity while both ends of the ligature were situated outside. The opposite ligature ends were passed through a PE tube (PE100, 2.5 cm) and allowed to stand loose for 20 min for stabilization. Via the cannula inserted into the femoral vein, vehicles or drugs were administered into the rats which were rendered to stand for 30 min in order to sufficiently elicit the efficacies of the drugs. BMS-180448 was used as a control drug and the i.v.administration dose was 0.3 mg/kg for all test drugs of interest and the control drug.
Next, the PE tube which had the doubled strands of the ligature passed therethrough was pushed toward the heart and then, set upright by tightly pulling end regions of the ligature with a hemostatic pincette while pressing the coronary artery. The PE tube was allowed to stand for 45 min for the occlusion of the coronary artery, followed by the removal of the hemostatic pincette and then, by the reperfusion for 90 min.
After the reocclusion of the coronary artery in accordance with the above procedure, the rats were administered with 2 ml of a 1% Evans blue through an intravenous route. Subsequently, an excess of pentobarbital was intravenously injected to kill the rats, after which the heart was removed and then, deprived of the right ventricle and both atria. The left ventricle was cut horizontally to the heart apex into 5 or 6 slices which were weighed. From the surface of each slice, images were input with the aid of a Hi-scope into a computer installed with an image analyzing program (Image Pro Plus). From the images input into the computer, the area of the normal blood stream tissue region which appeared blue in a computer monitor and the area which appeared colorless were measured. The percentage of the colorless area to the total area of each slice was calculated and multiplied by the weight of each slice to determine the area at risk (AAR) of each slice. […]

[2] = tested on: RAW 264.7 cells; experiment: Inhibition of LPS-induced NO production (Griess reagent); format: cell-based, murine; settings: Mus musculus, 24 hours; for inhibition at 33 µM: RAW264.7, 33 uM; for inhibition at 100 µM: RAW264.7, 100 uM
Description: Using RPMI1640 media supplemented with 10% fetal bovine serum (FBS), RAW 264.7 cells (obtained from American Type Culture Collection), a murine macrophage cell line, were cultured at 37 °C in a 5% CO2 incubator. The RAW264.7 cells were harvested and cell density was adjusted to 5x10^5/ml with a RPMI medium supplemented with 0.5% FBS and plated at 5x10^4 cells/well to 96-well plates, which were then cultured for 20 hr in a CO2 incubator. After removal of the media, the cells were pre-treated for 1 hour with fresh media containing 33 uM and 100 uM of test compounds. The test compounds were dissolved in DMSO and diluted to respective concentration in the media. In order to minimize DMSO effect on the nitric oxide formation by the RAW264.7 cells in the wells, the media were allowed to contain DMSO at a concentration of 0.1 % or less.
After completion of one hour pre-treatment, lipopolysaccharide (LPS, E. coli serotype 055:B5) was added to activate the cells, which were, then, maintained for 24 hours in a CO2 incubator. As a result of the activation of RAW264.7 cells with LPS, NO was formed. The NO released into the media was in a form of nitrite NO2^- and quantitatively measured using the Griess reagent. A control was treated only with vehicle instead of test compounds.
The inhibitory effects of the test compounds against NO production were determined as the reduction of NO quantity compared with that of the control group.

[3] = tested on: rat brain homogenate; experiment: Inhibition of iron-induced lipid peroxidation (MDA quantification); format: biochemical; settings: 100 uM; FeCl2 400 uM, 37 °C, 30 min
Description: The rat brain was homogenized in a Krebs buffer (15 mM HEPES, 10 mM glucose, 140 mM NaCl, 3.6 mM KCl, 1.5 mM CaCl2, 1.4 mM KH2PO4, 0.7 mM MgCl2, pH 7.4) and the supernatant separated by centrifugation at 12,000 rpm for 10 min. was used for further experiments. FeCl2 was added to a final concentration of 400 uM in the brain homogenate which was then allowed to stand at 37 °C for 30 min. for the facilitation of oxidation. Each of the test compounds was added at a concentration of 100 uM and vehicle was used as a control.
Iron facilitates the oxidation of the brain homogenate to produce malondialdehyde (MDA), a lipid peroxidation product. Thus, the lipid peroxidation was determined by MDA quantification. The inhibitory effect of the test compounds against the lipid peroxidation was evaluated by calculating MDA reduction rate of the test compounds compared with that of the control group.
Typically, the MDA quantification is achieved by reacting samples with 2-thiobarbituric acid (TBA) and measuring the absorbance at 530 nm. However, this method is unsuitable to treat samples on a large scale because of a boiling step. Thus, in this experiment, N-methyl-2-phenylindole was used instead of TBA. […] Bioxytech^R LPO-586 Kit was used for MDA quantification.

| Structure (SMILES) | Anti-ischemic Activity (in vivo, rats) (0.3 mg/kg i.v.) IZ/AAR (%) [1] | inhibition at 33 µM [2] | inhibition at 100 µM [2] | % Inhibition [3] |
| --- | --- | --- | --- | --- |
| COC(OC)[C@@]1(C)Oc2ccc([N+](=O)[O-])cc2[C@H](NC(=NC#N)NCc2ccccc2)[C@H]1O [Example 24, (2S, 3R, 4S)-N''-cyano-N-(6-nitro-3,4-dihydro-3-hydroxy-2-methyl-2-dimethoxymethyl-2H-benzopyran-4-yl)-N'-benzylguanidine] | 48.48% | 16% | 48% | 12% |
| COC(OC)[C@@]1(C)Oc2ccc([N+](=O)[O-])cc2[C@@H](NC(=NC#N)NCc2ccccc2)[C@@H]1O [Example 25, (2S, 3S, 4R)-N''-cyano-N-(6-nitro-3,4-dihydro-3-hydroxy-2-methyl-2-dimethoxymethyl-2H-benzopyran-4-yl)-N'-benzylguanidine] | 48.55% | 39% | 54% | 2% |
| COC(OC)[C@@]1(C)Oc2ccc([N+](=O)[O-])cc2[C@H](NC(=NC#N)Nc2ccccc2Cl)[C@H]1O [Example 32, (2S, 3R, 4S)-N''-cyano-N-(6-nitro-3,4-dihydro-3-hydroxy-2-methyl-2-dimethoxymethyl-2H-benzopyran-4-yl)-N'-(2-chlorophenyl)guanidine] | 44.72% | – | 83% | 86% |
| COC(OC)[C@@]1(C)Oc2ccc([N+](=O)[O-])cc2[C@@H](NC(=NC#N)NCc2ccccc2)[C@@H]1OC(C)=O [Example 38, (2S, 3S, 4R)-N''-cyano-N-(6-nitro-3,4-dihydro-3-acetoxy-2-methyl-2-dimethoxymethyl-2H-benzopyran-4-yl)-N'-benzylguanidine] | 51.13% | 56% | 85% | 4% |
| COC(OC)[C@@]1(C)Oc2ccc(N)cc2[C@@H](NC(=NC#N)NCc2ccccc2)[C@@H]1O [Example 40, (2S, 3S, 4R)-N''-cyano-N-(6 - amino-3,4-dihydro-3-hydroxy-2-methyl-2-dimethoxymethyl-2H-benzopyran-4-yl)-N'-benzylguanidine] | 30.25% | – | 26% | 79% |
